In brackets after ≈: the same amount, converted by molar mass. Where two headings read alike, the source gives them in different places. Blank lines part the entries; values can stand above or below the compound they belong to.
How the values were obtained:
[1] = system: Plasmodium falciparum isolates 3D7, FC27, K+; test: Radiometric (3H-hypoxanthine) assay on asexual blood stages of P. falciparum; assay type: cell-based; conditions: for EC50: Plasmodium falciparum, read-out: EC50 against P. falciparum
Description: Using the radiometric assay^(36), the effects of the Lx compounds were examined for antimalarial activity. The Plasmodium falciparum isolates used were 3D7, FC27, K^1 and K^+. These were maintained in human blood group O^+ erythrocytes essentially as described previously using RPM-1640 (HEPES modification) supplemented with 0.25% D-glucose, 0.2% Tess buffer (Sigma Chemical Co, Lt Louis, Mo.) and 10% heat inactivated (56° C., 20 min) human blood group AB serum. Cultures were maintained in tissue culture flasks (Corning, N.Y.) at 37° C. under an atmosphere of 1% 2, 5% CO2 in N2. P. falciparum cultures containing approximately 3.0:% parasitaemia were adjusted to 1×10^8 erythrocytes/ml. To 50 μl of the parasite-erythrocyte culture (5×10^6 erythrocytes) in wells of 96-well microdilution plates wvas added 50 μl of the designated concentration of fatty acid or equivalent amounts of solutions or media. The treated cultures were incubated at 37° C. for 4 h and then pulsed with 50 μl (2.5 μCi) of ^3H-hypoxanthine. After a further 18 h incubation the parasites-erythrocytes were harvested onto glass fibre filter papers using a cell harvester. The amount of radioactivity incorporated was measured in a β-counter. The results have been expressed as % inhibition of parasite growth i.e. the dpm in the fatty acid diluent−dpm in the fatty acid treated cultures/dpm in diluent×100.

[2] = Thin film autoxidation of arachidonic acid with compounds 16-19 (HPLC)
From the text: Subsequently, the autoxidation of compounds 16-19 and their effects on the autoxidation of arachidonic acid were investigated. In these experiments, a thin film assay method was employed. For each reaction, arachidonic acid was mixed with one of the synthetic compounds 16, 17, 18 or 19 at 1:1 ratio with or without the radical initiator, azobisisobutyronitrile (AIBN). A reverse phase HPLC method was used to simultaneously measure the relative amounts of arachidonic acid and the synthetic compounds 16, 17, 18 or 19 recovered following 60 or 70 hours or 7 days of thin film autoxidation.

[3] = Petri-dish thin film autoxidation of arachidonic acid with thia fatty acids and sulfides (HPLC)
Description: A stock solution in dichioromethane (2 ml) containing arachidonic acid 1 (18 mg) and 3-[(3Z,6Z)-nona-3,6dienylthio]propionic acid 106 (18 mg) was prepared with lauric acid (18 mg) as an internal standard. Samples of the stock solution (100 μl) were added to glass Petri-dishes followed by ethanol (400 μl). After evaporation of the solvent, a well-distributed thin film was formed on each Petri-dish. The Petri-dishes were placed in a desiccator, which was then evacuated, filled with oxygen and stored in the darkness. Dishes were removed from the desiccator after 1, 2, 3, 5 and 7 days. The mixture on each dish was redissolved in diethyl ether and transferred to a 2 ml vial. After evaporation of the solvent, the residue was dissolved in the HPLC mobile phase (100 μl) and 10% of the solution was analysed by HPLC using a reverse phase column (octadecylsilane) (4.6 mm×250 mm, 3 μm) and a refractive index detector.
Autoxidation of arachidonic acid was conducted in the presence of compound 19 and lauric acid. Stock solutions of arachidonic acid, compound 19 and lauric acid in dichloromethane with equal concentrations were added to a 25 ml round-bottomed flask, and the solvent was evaporated to leave a thin film on the internal surface of the flask. The flask was then filled with oxygen and kept in the dark. The percentages of arachidonic acid and compound 19 remaining after 7 days were measured by HPLC. The same assay was carried out simultaneously with several flasks but the results were not reproducible. The variation was attributed to differences in oxygen concentration and the surface area of the thin films formed in the flasks. Therefore, in order to establish a reproducible assay for the analysis of the autoxidation of arachidonic acid, Petri-dishes with uniform size (80 mm in diameter) were used instead of flasks for thin film formation and the oxidation was carried out by placing the Petri-dishes in a dessicator filled with oxygen. To assess this method, thin firms of arachidonic acid with lauric acid as a standard were prepared on six Petri-dishes using identical treatment, and then subjected to oxidation in the same dessicator filled with oxygen. After 24 h, the percentage of arachidonic acid recovered following autoxidation in each Petri-dish was determined by HPLC. […] The advantage of using a Petri-dish over a flask is that the thin films on each Petri-dish are spread over the same area, and each Petri-dish is exposed to oxygen to the same extent.
Using the Petri-dish assay method, the effects of the thia PUFAs and sulfides 106 and 108-111, along with compounds 18, 19 and 3-[(Z,Z,Z)-(octadeca-9,12,15-trienylthio)] propionic acid 112 which were available in the laboratory, on the autoxidation of arachidonic acid, were examined. In addition, the stability of these compounds in the presence of arachidonic acid was also investigated. Arachidonic acid and lauric acid as a standard were mixed with each sulfur compound at different ratios and the mixtures were subjected to thin film autoxidation. The mixtures were analysed by HPLC after 1,2,3,5 and 7 days.

[4] = biological target: T1, 15-LO (Glycine max, UniProt P08170); test: Effect on 15-LO catalysed oxidation of arachidonic acid; assay type: biochemical, soybean
T1 construct: purchased Sigma Chemical Company
T1 sequence (P08170 1-839): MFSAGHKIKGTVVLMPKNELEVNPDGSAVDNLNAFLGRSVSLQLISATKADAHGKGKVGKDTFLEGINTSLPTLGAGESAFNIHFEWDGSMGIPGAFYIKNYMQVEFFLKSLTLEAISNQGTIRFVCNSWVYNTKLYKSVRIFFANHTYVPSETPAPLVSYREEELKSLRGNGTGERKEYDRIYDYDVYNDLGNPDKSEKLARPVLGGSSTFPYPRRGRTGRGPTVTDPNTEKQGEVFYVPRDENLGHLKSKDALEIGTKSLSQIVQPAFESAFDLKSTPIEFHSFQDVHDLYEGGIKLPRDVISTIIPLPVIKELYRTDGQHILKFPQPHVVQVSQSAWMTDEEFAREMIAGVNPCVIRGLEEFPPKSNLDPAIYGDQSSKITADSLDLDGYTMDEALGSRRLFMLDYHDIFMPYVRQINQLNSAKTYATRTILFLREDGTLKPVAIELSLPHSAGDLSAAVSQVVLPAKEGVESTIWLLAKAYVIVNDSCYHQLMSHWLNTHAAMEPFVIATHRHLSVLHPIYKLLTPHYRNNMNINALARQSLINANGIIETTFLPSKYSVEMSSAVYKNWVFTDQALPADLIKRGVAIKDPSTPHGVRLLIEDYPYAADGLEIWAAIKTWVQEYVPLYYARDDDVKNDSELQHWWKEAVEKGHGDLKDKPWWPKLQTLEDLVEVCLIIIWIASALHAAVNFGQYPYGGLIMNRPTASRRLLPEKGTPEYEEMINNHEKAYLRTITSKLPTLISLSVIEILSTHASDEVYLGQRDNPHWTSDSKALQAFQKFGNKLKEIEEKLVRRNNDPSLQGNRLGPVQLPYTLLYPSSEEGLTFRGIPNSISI

[5] = ratio 2:1, with AIBN at 10% the amount of arachidonic acid, 1 day
[6] = ratio 2:1, with AIBN at 10% the amount of arachidonic acid, 2 days
[7] = ratio 2:1, with AIBN at 10% the amount of arachidonic acid, 3 days
[8] = ratio 2:1, with AIBN at 10% the amount of arachidonic acid, 5 days
[9] = ratio 2:1, with AIBN at 10% the amount of arachidonic acid, 7 days
[10] = ratio arachidonic acid:compound 1:1, 1 day
[11] = ratio arachidonic acid:compound 1:1, 2 days
[12] = ratio arachidonic acid:compound 1:1, 3 days
[13] = ratio arachidonic acid:compound 1:1, 5 days
[14] = ratio arachidonic acid:compound 1:1, 7 days
[15] = ratio arachidonic acid:compound 2:1, 1 day
[16] = ratio arachidonic acid:compound 2:1, 2 days
[17] = ratio arachidonic acid:compound 2:1, 3 days
[18] = ratio arachidonic acid:compound 2:1, 5 days
[19] = ratio arachidonic acid:compound 2:1, 7 days
[20] = ratio arachidonic acid:compound 10:1, 1 day
[21] = ratio arachidonic acid:compound 10:1, 2 days
[22] = ratio arachidonic acid:compound 10:1, 3 days

EC50 ([1]; 3D7, isolate FC27): 12 µg/mL (≈ 36.5 µM) | EC50 ([1]; 3D7, isolate K+): 4 µg/mL (≈ 12.2 µM)
SMILES: CC/C=C\C/C=C\C/C=C\C/C=C\C/C=C\C/C=C\CCC(=O)O [22:6n-3, docosahexaenoic acid, reference compound]
Reduction of antimalarial activity by human serum ([1]; compound 20 μg/ml, presence of human serum): 85%

SMILES: CCCCC/C=C\C/C=C\C/C=C\C/C=C\CCCCSCCC(=O)O [Compound 19]
Percentage of arachidonic acid recovered in the presence of the compound ([2]; ratio 1:1, 10% AIBN 60 h): 100% | Percentage of compound recovered (with arachidonic acid) ([2]; ratio 1:1, 10% AIBN 60 h): 96% | Percentage of arachidonic acid recovered in the presence of the compound ([2]; ratio 1:1, no additive 70 h): 101% | Percentage of compound recovered (with arachidonic acid) ([2]; ratio 1:1, no additive 70 h): 98% | Percentage of arachidonic acid recovered in the presence of the compound ([2]; ratio 1:1, no additive 7 day): 102% | Percentage of compound recovered (with arachidonic acid) ([2]; ratio 1:1, no additive 7 day): 96% | Autoxidation of arachidonic acid in the presence of the compound (in words) ([2]; ratio 1:1, with or without AIBN): completely inhibited | Antioxidant effect on autoxidation of arachidonic acid (in words) [3]: effective antioxidants | Antioxidant effect on autoxidation of arachidonic acid (in words) ([3]; 1:1 ratio with arachidonic acid): almost complete prevention of autoxidation | Antioxidant effect on autoxidation of arachidonic acid (in words) ([3]; compound at one-tenth that of arachidonic acid): very slow over the first 3 days | Arachidonic acid (%) recovered following autoxidation in the presence of the compound [3, 5]: 100% | Compound (%) recovered following autoxidation with arachidonic acid [3, 5]: 98% | Arachidonic acid (%) recovered following autoxidation in the presence of the compound [3, 6]: 98% | Compound (%) recovered following autoxidation with arachidonic acid [3, 6]: 95% | Arachidonic acid (%) recovered following autoxidation in the presence of the compound [3, 7]: 94% | Compound (%) recovered following autoxidation with arachidonic acid [3, 7]: 80% | Arachidonic acid (%) recovered following autoxidation in the presence of the compound [3, 8]: 49% | Compound (%) recovered following autoxidation with arachidonic acid [3, 8]: 47% | Arachidonic acid (%) recovered following autoxidation in the presence of the compound [3, 9]: 35% | Compound (%) recovered following autoxidation with arachidonic acid [3, 9]: 43% | Arachidonic acid (%) recovered following autoxidation in the presence of the compound [3, 10]: 99% | Compound (%) recovered following autoxidation with arachidonic acid [3, 10]: 99% | Arachidonic acid (%) recovered following autoxidation in the presence of the compound [3, 11]: 100% | Compound (%) recovered following autoxidation with arachidonic acid [3, 11]: 100% | Arachidonic acid (%) recovered following autoxidation in the presence of the compound [3, 12]: 99% | Compound (%) recovered following autoxidation with arachidonic acid [3, 12]: 99% | Arachidonic acid (%) recovered following autoxidation in the presence of the compound [3, 13]: 99% | Compound (%) recovered following autoxidation with arachidonic acid [3, 13]: 98% | Arachidonic acid (%) recovered following autoxidation in the presence of the compound [3, 14]: 98% | Compound (%) recovered following autoxidation with arachidonic acid [3, 14]: 99% | Arachidonic acid (%) recovered following autoxidation in the presence of the compound [3, 15]: 100% | Compound (%) recovered following autoxidation with arachidonic acid [3, 15]: 98% | Arachidonic acid (%) recovered following autoxidation in the presence of the compound [3, 16]: 99% | Compound (%) recovered following autoxidation with arachidonic acid [3, 16]: 96% | Arachidonic acid (%) recovered following autoxidation in the presence of the compound [3, 17]: 100% | Compound (%) recovered following autoxidation with arachidonic acid [3, 17]: 96% | Arachidonic acid (%) recovered following autoxidation in the presence of the compound [3, 18]: 98% | Compound (%) recovered following autoxidation with arachidonic acid [3, 18]: 94% | Arachidonic acid (%) recovered following autoxidation in the presence of the compound [3, 19]: 97% | Compound (%) recovered following autoxidation with arachidonic acid [3, 19]: 90% | Arachidonic acid (%) recovered following autoxidation in the presence of the compound [3, 20]: 99% | Compound (%) recovered following autoxidation with arachidonic acid [3, 20]: 95% | Arachidonic acid (%) recovered following autoxidation in the presence of the compound [3, 21]: 99% | Compound (%) recovered following autoxidation with arachidonic acid [3, 21]: 87% | Arachidonic acid (%) recovered following autoxidation in the presence of the compound [3, 22]: 87% | Compound (%) recovered following autoxidation with arachidonic acid [3, 22]: 38% | Arachidonic acid (%) recovered following autoxidation in the presence of the compound ([3]; ratio arachidonic acid:compound 10:1, 5 days): 42% | Arachidonic acid (%) recovered following autoxidation in the presence of the compound ([3]; ratio arachidonic acid:compound 10:1, 7 days): 17%

Effect on 15-LO catalysed oxidation of AA [4]: Nil
SMILES: CC/C=C\C/C=C\C/C=C\C/C=C\C/C=C\C/C=C\CCC[N+](=O)[O-] [Lx5, (a11-z)-1-Nitro-4,7,10,13,16,19-docosahexaene]
